Data published in patent US11001600B2, “Disubstituted compounds for treatment of medical disorders” (Achillion Pharmaceuticals, Inc., priority 2015, dated 2021).

biological target: Human Factor D (Homo sapiens (Human), UniProt P00746); assay: Human Factor D assay; format: biochemical; conditions: not given
Method: Example 8. Human Factor D Assay
Human Factor D (purified from human serum, Complement Technology, Inc.) at 80 nM final concentration is incubated with test compound at various concentrations for 5 minutes at room temperature in 50 mM Tris, 1M NaCl, pH 7.5. A synthetic substrate Z-L-Lys-SBzl and DTNB (Ellman's reagent) are added to final concentrations of 100 μM each. Absorbance at 405 nm (A405) is recorded at 30 second intervals for 30 minutes using a microplate spectrophotometer. IC50 values are calculated by nonlinear regression of complement Factor D reaction rates as a function of test compound concentration.

Human Factor D, sequence (P00746 26-253): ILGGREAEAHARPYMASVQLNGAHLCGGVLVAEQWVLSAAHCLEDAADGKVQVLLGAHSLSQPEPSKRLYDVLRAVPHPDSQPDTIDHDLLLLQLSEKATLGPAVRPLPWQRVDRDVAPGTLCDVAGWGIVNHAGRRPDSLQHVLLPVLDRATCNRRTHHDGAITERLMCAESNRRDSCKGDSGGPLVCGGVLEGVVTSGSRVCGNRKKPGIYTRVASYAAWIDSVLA

Row | Compound | IC50
1 | CC(C)(C)OC(=O)N=S(C)(=O)c1cccc(-c2cccc(NC(=O)[C@@H]3C[C@@H](F)CN3C(=O)Cn3nc(C(N)=O)c4ccccc43)c2F)c1 (stereo partly drawn) [Compound 49, tert-butyl ((3′-((2S,4R)-1-(2-(3-carbamoyl-1H-indazol-1-yl)acetyl)-4-fluoropyrrolidine-2-carboxamido)-2′-fluoro-[1,1′-biphenyl]-3-yl)(methyl)(oxo)-16-sulfaneylidene)-14-azanecarboxylate] | 1000 to 10000 nM

same assay, conditions: Factor D 80 nM, substrate Z-L-Lys-SBzl; Table 1; read-out: IC50

Row | Compound | IC50
2 | CC(=O)c1cn(CC(=O)N2C[C@H](F)C[C@H]2C(=O)Nc2cccc(-c3ccccc3Cl)c2F)c2cc(OCP(=O)(O)O)c(-c3cnc(C)nc3)cc12 [Compound 9, (3-acetyl-1-(2-((2S,4R)-2-(2′-chloro-2-fluorobiphenyl-3-ylcarbamoyl)-4-fluoropyrrolidin-1-yl)-2-oxoethyl)-5-(2-methylpyrimidin-5-yl)-1H-indol-6-yloxy)methylphos-phonic acid] | < 1000 nM
3 | CC(=O)c1cn(CC(=O)N2C[C@H](F)C[C@H]2C(=O)Nc2cccc(Br)n2)c2cc(OCP(=O)(O)O)c(-c3cnc(C)nc3)cc12 [Compound 13, (3-acetyl-1-(2-((2S,4R)-2-(6-bromopyridin-2-ylcarbamoyl)-4-fluoropyrrolidin-1-yl)-2-oxoethyl)-5-(2-methylpyrimidin-5-yl)-1H-indol-6-yloxy)methylphos-phonic acid] | < 1000 nM
4 | CCOP(=O)(COc1cc2c(cc1-c1cnc(C)nc1)c(C(C)=O)cn2CC(=O)N1C[C@H](F)C[C@H]1C(=O)Nc1cccc(-c2ccccc2Cl)c1F)OCC [Compound 8, diethyl (3-acetyl-1-(2-((2S,4R)-2-(2′-chloro-2-fluorobiphenyl-3-ylcarbamoyl)-4-fluoropyrrolidin-1-yl)-2-oxoethyl)-5-(2-methylpyrimidin-5-yl)-1H-indol-6-yloxy)methylphosphonate] | < 1000 nM

same assay, conditions: Factor D 80 nM, substrate Z-L-Lys-SBzl; Table 2 (headed TABLE 1); read-out: IC50

Row | Compound | IC50
5 | CC(=O)c1nn(CC(=O)N2C[C@H](F)C[C@H]2C(=O)Nc2cccc(Br)n2)c2cc(OCC(=O)N(C)C)c(-c3cnc(C)nc3)cc12 [Compound 26, (2S,4R)-1-(2-(3-acetyl-6-(2-(dimethylamino)-2-oxoethoxy)-5-(2-methylpyrimidin-5-yl)-1H-indazol-1-yl)acetyl)-N-(6-bromopyridin-2-yl)-4-fluoropyrrolidine-2-carboxamide] | < 1000 nM
6 | CC(=O)c1nn(CC(=O)N2C[C@H](F)C[C@H]2C(=O)Nc2cccc(Br)n2)c2ccc(-c3cnc(S(C)(=N)=O)nc3)cc12 (stereo partly drawn) [Compound 46, (2S,4R)-1-(2-(3-acetyl-5-(2-(S-methylsulfonimidoyl)pyrimidin-5-yl)-1H-indazol-1-yl)acetyl)-N-(6-bromopyridin-2-yl)-4-fluoropyrrolidine-2-carboxamide] | < 1000 nM
7 | CC(=O)c1nn(CC(=O)N2C[C@H](F)C[C@H]2C(=O)Nc2cccc(Br)n2)c2cc(OCCOCc3ccccc3)c(-c3cnc(C)nc3)cc12 [Compound 33, (2S,4R)-1-(2-(3-acetyl-6-(2-(benzyloxy)ethoxy)-5-(2-methylpyrimidin-5-yl)-1H-indazol-1-yl)acetyl)-N-(6-bromopyridin-2-yl)-4-fluoropyrrolidine-2-carboxamide] | < 1000 nM
8 | CC(=O)c1nn(CC(=O)N2C[C@H](F)C[C@H]2C(=O)Nc2cccc(Br)n2)c2cc(OCCO)c(-c3cnc(C)nc3)cc12 [Compound 41, (2S,4R)-1-(2-(3-acetyl-6-(2-hydroxyethoxy)-5-(2-methylpyrimidin-5-yl)-1H-indazol-1-yl)acetyl)-N-(6-bromopyridin-2-yl)-4-fluoropyrrolidine-2-carboxamide] | < 1000 nM
9 | CC(=O)c1cn(CC(=O)N2C[C@H](F)C[C@H]2C(=O)Nc2cccc(Br)n2)c2ccc(S(C)(=O)=NC(=O)OC(C)(C)C)cc12 (stereo partly drawn) [Compound 47, tert-butyl ((3-acetyl-1-(2-((2S,4R)-2-((6-bromopyridin-2-yl)carbamoyl)-4-fluoropyrrolidin-1-yl)-2-oxoethyl)-1H-indol-5-yl)(methyl)(oxo)-16-sulfaneylidene)-14-azanecarboxylate] | < 1000 nM
10 | CC(=O)c1cn(CC(=O)N2C[C@H](F)C[C@H]2C(=O)Nc2cccc(Br)n2)c2ccc(S(C)(=N)=O)cc12 (stereo partly drawn) [Compound 48, (2S,4R)-1-(2-(3-acetyl-5-(S-methylsulfonimidoyl)-1H-indol-1-yl)acetyl)-N-(6-bromopyridin-2-yl)-4-fluoropyrrolidine-2-carboxamide] | < 1000 nM
11 | COCOCCOc1cc2c(cc1-c1cnc(C)nc1)c(C(C)=O)nn2CC(=O)N1C[C@H](F)C[C@H]1C(=O)Nc1cccc(Br)n1 [Compound 39, (2S,4R)-1-(2-(3-acetyl-6-(2-(methoxymethoxy)ethoxy)-5-(2-methylpyrimidin-5-yl)-1H-indazol-1-yl)acetyl)-N-(6-bromopyridin-2-yl)-4-fluoropyrrolidine-2-carboxamide] | < 1000 nM
12 | CC(=O)c1nn(CC(=O)N2C[C@H](F)C[C@H]2C(=O)Nc2cccc(Br)n2)c2cc(OCCN(C)C)c(-c3cnc(C)nc3)cc12 [Compound 44, (2S,4R)-1-(2-(3-acetyl-6-(2-(dimethylamino)ethoxy)-5-(2-methylpyrimidin-5-yl)-1H-indazol-1-yl)acetyl)-N-(6-bromopyridin-2-yl)-4-fluoropyrrolidine-2-carboxamide] | < 1000 nM
